Starred links: 1 amine or outer side, 2 acyl side, 3 side chain; linkers in the order of their positions; H or OH if unused. Positions of bridges follow the written chain, without caps; N, C: chain ends. Non-standard residues stand in square brackets, D forms with d. Residues, ends and D or L forms follow the SMILES beside them. Groups on a side chain read outwards from the residue. *: point of attachment. X3 = O=C(O)CCCCCCCCCCCCCCCCCCC(=O)N[C@@H](CCC(=O)NCOCCOCC(=O)NCOCCOCC(=O)*)C(=O)O; X2 = O=C(O)CCCCCCCCCCCCCCCCC(=O)N[C@@H](CCC(=O)NCOCCOCC(=O)NCOCCOCC(=O)*)C(=O)O; X1 = O=C(O)CCCCCCCCCCCCCCCCCCC(=O)NCOCCOCC(=O)*; C20 diacid = O=C(O)CCCCCCCCCCCCCCCCCCC(=O)*; C18 diacid = O=C(O)CCCCCCCCCCCCCCCCC(=O)*; γGlu = O=C(O)[C@H](CCC(=O)[*:2])N[*:1]; Palmitoyl = CCCCCCCCCCCCCCCC(=O)*; AEEA = NCCOCCOCC(=O)O
Assay: in vivo
Set-up: species or system Sprague-Dawley rats
Settings: rat, iv, 0.033 mg/kg
In short: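 Peptide plasma levels measured by UPLC-MS/MS (C18, product-ion monitoring) after protein precipitation or WCX SPE, calibrated in K2EDTA/protease-inhibitor rat plasma. Dosing in non-fasted male Sprague-Dawley rats (n=3): 0.033 mg/kg over 1 h by IV or SC infusion, or 0.3 mg/kg SC bolus; sampling up to 48 h.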

Compound | Vd [L/kg] | clearance [mL/h/kg] | half-life [h]
CCCCCCCCCCCCCCCC(=O)N[C@@H](CCC(=O)N[C@@H](CCC(=O)N[C@@H](CCC(=O)N[C@@H](CCC(=O)N[C@@H](CCC(=O)NCCCC[C@@H](NC(=O)[C@H](CCC(=O)O)NC(=O)[C@H](CC(N)=O)NC(=O)[C@H](C)NC(=O)[C@H](CC(C)C)NC(=O)[C@H](CCCNC(=N)N)NC(=O)[C@H](CCC(N)=O)NC(=O)[C@@H](NC(=O)[C@H](C)NC(=O)[C@@H]1CSSC[C@H](NC(=O)[C@@H](N)CO)C(=O)N[C@@H](CC(N)=O)C(=O)N[C@@H]([C@@H](C)O)C(=O)N[C@@H](CO)C(=O)N[C@@H]([C@@H](C)O)C(=O)N1)[C@@H](C)O)C(=O)N[C@@H](Cc1c[nH]cn1)C(=O)N[C@@H](CCCCN)C(=O)N[C@@H](CO)C(=O)N[C@@H](CO)C(=O)N[C@@H](CC(N)=O)C(=O)N[C@@H](CC(N)=O)C(=O)N[C@@H](Cc1ccccc1)C(=O)NCC(=O)N1CCC[C@H]1C(=O)N[C@H](C(=O)N[C@@H](CC(C)C)C(=O)N1CCC[C@H]1C(=O)N1CCC[C@H]1C(=O)N[C@H](C(=O)N[C@@H](CCCCN)C(=O)N[C@H](C(=O)NCC(=O)N[C@@H](CO)C(=O)N[C@@H](CCC(=O)O)C(=O)N[C@H](C(=O)N[C@@H](Cc1ccc(O)cc1)C(N)=O)[C@@H](C)O)C(C)C)[C@@H](C)O)[C@@H](C)CC)C(=O)O)C(=O)O)C(=O)O)C(=O)O)C(=O)O [Compound A91] (H-SCNTSTCATQRLANE[dK]([γGlu-γGlu-γGlu-γGlu-γGlu-Palmitoyl])HKSSNNFGPILPPTKVGSETY-NH2; disulfide 2-7) | 0.194 | 11.6 | 13.2
CC[C@H](C)[C@H](NC(=O)[C@@H]1CCCN1C(=O)CNC(=O)[C@H](Cc1ccccc1)NC(=O)[C@H](CC(N)=O)NC(=O)[C@H](CC(N)=O)NC(=O)[C@H](CO)NC(=O)[C@H](CO)NC(=O)[C@H](CCCCN)NC(=O)[C@H](Cc1c[nH]cn1)NC(=O)[C@H](CCCCNC(=O)CCCCCCCCCCCCCCCCC(=O)O)NC(=O)[C@H](CCC(=O)O)NC(=O)[C@H](CC(N)=O)NC(=O)[C@H](C)NC(=O)[C@H](CC(C)C)NC(=O)[C@H](CCCNC(=N)N)NC(=O)[C@H](CCC(N)=O)NC(=O)[C@@H](NC(=O)[C@H](C)NC(=O)[C@@H]1CSSC[C@H](NC(=O)[C@@H](N)CO)C(=O)N[C@@H](CC(N)=O)C(=O)N[C@@H]([C@@H](C)O)C(=O)N[C@@H](CO)C(=O)N[C@@H]([C@@H](C)O)C(=O)N1)[C@@H](C)O)C(=O)N[C@@H](CC(C)C)C(=O)N1CCC[C@H]1C(=O)N1CCC[C@H]1C(=O)N[C@H](C(=O)N[C@@H](CCCCN)C(=O)N[C@H](C(=O)NCC(=O)N[C@@H](CO)C(=O)N[C@@H](CCC(=O)O)C(=O)N[C@H](C(=O)N[C@@H](Cc1ccc(O)cc1)C(N)=O)[C@@H](C)O)C(C)C)[C@@H](C)O [Compound A93] (H-SCNTSTCATQRLANEK(C18 diacid)HKSSNNFGPILPPTKVGSETY-NH2; disulfide 2-7) | 0.129 | 6.54 | 16.7
CC[C@H](C)[C@H](NC(=O)[C@@H]1CCCN1C(=O)CNC(=O)[C@H](Cc1ccccc1)NC(=O)[C@H](CC(N)=O)NC(=O)[C@H](CC(N)=O)NC(=O)[C@H](CO)NC(=O)[C@H](CO)NC(=O)[C@H](CCCCN)NC(=O)[C@H](Cc1c[nH]cn1)NC(=O)[C@H](CC(C)C)NC(=O)[C@@H](CCCCNC(=O)CC[C@H](NC(=O)CC[C@H](NC(=O)CCCCCCCCCCCCCCCCCCC(=O)O)C(=O)O)C(=O)O)NC(=O)[C@H](CC(N)=O)NC(=O)[C@H](C)NC(=O)[C@H](CC(C)C)NC(=O)[C@H](CCCNC(=N)N)NC(=O)[C@H](CCC(N)=O)NC(=O)[C@@H](NC(=O)[C@H](C)NC(=O)[C@@H]1CSSC[C@H](NC(=O)[C@@H](N)CO)C(=O)N[C@@H](CC(N)=O)C(=O)N[C@@H]([C@@H](C)O)C(=O)N[C@@H](CO)C(=O)N[C@@H]([C@@H](C)O)C(=O)N1)[C@@H](C)O)C(=O)N[C@@H](CC(C)C)C(=O)N1CCC[C@H]1C(=O)N1CCC[C@H]1C(=O)N[C@H](C(=O)N[C@@H](CCCCN)C(=O)N[C@H](C(=O)NCC(=O)N[C@@H](CO)C(=O)N[C@@H](CCC(=O)O)C(=O)N[C@H](C(=O)N[C@@H](Cc1ccc(O)cc1)C(N)=O)[C@@H](C)O)C(C)C)[C@@H](C)O [Compound A97] (H-SCNTSTCATQRLAN[dK]([γGlu-γGlu-C20 diacid])LHKSSNNFGPILPPTKVGSETY-NH2; disulfide 2-7) | 0.0995 | 3.62 | 21
CC[C@H](C)[C@H](NC(=O)[C@@H]1CCCN1C(=O)CNC(=O)[C@H](Cc1ccccc1)NC(=O)[C@H](CC(N)=O)NC(=O)[C@H](CC(N)=O)NC(=O)[C@H](CO)NC(=O)[C@H](CO)NC(=O)[C@H](CCCCN)NC(=O)[C@H](CCCCNC(=O)COCCOCNC(=O)COCCOCNC(=O)CC[C@H](NC(=O)CCCCCCCCCCCCCCCCC(=O)O)C(=O)O)NC(=O)[C@H](CC(C)C)NC(=O)[C@H](CCC(=O)O)NC(=O)[C@H](CC(N)=O)NC(=O)[C@H](C)NC(=O)[C@H](CC(C)C)NC(=O)[C@H](CCCNC(=N)N)NC(=O)[C@H](CCC(N)=O)NC(=O)[C@@H](NC(=O)[C@H](C)NC(=O)[C@@H]1CSSC[C@H](NC(=O)[C@@H](N)CO)C(=O)N[C@@H](CC(N)=O)C(=O)N[C@@H]([C@@H](C)O)C(=O)N[C@@H](CO)C(=O)N[C@@H]([C@@H](C)O)C(=O)N1)[C@@H](C)O)C(=O)N[C@@H](CC(C)C)C(=O)N1CCC[C@H]1C(=O)N1CCC[C@H]1C(=O)N[C@H](C(=O)N[C@@H](CCCCN)C(=O)N[C@H](C(=O)NCC(=O)N[C@@H](CO)C(=O)N[C@@H](CCC(=O)O)C(=O)N[C@H](C(=O)N[C@@H](Cc1ccc(O)cc1)C(N)=O)[C@@H](C)O)C(C)C)[C@@H](C)O [Compound A99] (H-SCNTSTCATQRLANELK(X2)KSSNNFGPILPPTKVGSETY-NH2; disulfide 2-7; N-terminus assumed) | 0.128 | 5.69 | 19.5

Other lines, results leading:

Vd [L/kg] | clearance [mL/h/kg] | half-life [h] | Compound
0.084 | 2.19 | 29.3 | CC[C@H](C)[C@H](NC(=O)[C@@H]1CCCN1C(=O)CNC(=O)[C@H](Cc1ccccc1)NC(=O)[C@H](CC(N)=O)NC(=O)[C@H](CC(N)=O)NC(=O)[C@H](CO)NC(=O)[C@H](CO)NC(=O)[C@H](CCCCN)NC(=O)[C@H](Cc1c[nH]cn1)NC(=O)[C@H](CC(C)C)NC(=O)[C@H](CCCCNC(=O)CC[C@H](NC(=O)CC[C@H](NC(=O)COCCOCNC(=O)COCCOCNC(=O)CC[C@H](NC(=O)CCCCCCCCCCCCCCCCCCC(=O)O)C(=O)O)C(=O)O)C(=O)O)NC(=O)[C@H](CC(N)=O)NC(=O)[C@H](C)NC(=O)[C@H](CC(C)C)NC(=O)[C@H](CCCNC(=N)N)NC(=O)[C@H](CCC(N)=O)NC(=O)[C@@H](NC(=O)[C@H](C)NC(=O)[C@@H]1CSSC[C@H](NC(=O)[C@@H](N)CO)C(=O)N[C@@H](CC(N)=O)C(=O)N[C@@H]([C@@H](C)O)C(=O)N[C@@H](CO)C(=O)N[C@@H]([C@@H](C)O)C(=O)N1)[C@@H](C)O)C(=O)N[C@@H](CC(C)C)C(=O)N1CCC[C@H]1C(=O)N1CCC[C@H]1C(=O)N[C@H](C(=O)N[C@@H](CCCCN)C(=O)N[C@H](C(=O)NCC(=O)N[C@@H](CO)C(=O)N[C@@H](CCC(=O)O)C(=O)N[C@H](C(=O)N[C@@H](Cc1ccc(O)cc1)C(N)=O)[C@@H](C)O)C(C)C)[C@@H](C)O [Compound A94] (H-SCNTSTCATQRLANK([γGlu-γGlu-X3])LHKSSNNFGPILPPTKVGSETY-NH2; disulfide 2-7; N-terminus assumed)
0.153 | 5.98 | 20.1 | CC[C@H](C)[C@H](NC(=O)[C@@H]1CCCN1C(=O)CNC(=O)[C@H](Cc1ccccc1)NC(=O)[C@H](CC(N)=O)NC(=O)[C@H](CC(N)=O)NC(=O)[C@H](CO)NC(=O)[C@H](CO)NC(=O)[C@H](CCCCN)NC(=O)[C@H](Cc1c[nH]cn1)NC(=O)[C@H](CC(C)C)NC(=O)[C@@H](CCCCNC(=O)CC[C@H](NC(=O)CC[C@H](NC(=O)COCCOCNC(=O)CCCCCCCCCCCCCCCCCCC(=O)O)C(=O)O)C(=O)O)NC(=O)[C@H](CC(N)=O)NC(=O)[C@H](C)NC(=O)[C@H](CC(C)C)NC(=O)[C@H](CCCNC(=N)N)NC(=O)[C@H](CCC(N)=O)NC(=O)[C@@H](NC(=O)[C@H](C)NC(=O)[C@@H]1CSSC[C@H](NC(=O)[C@@H](N)CO)C(=O)N[C@@H](CC(N)=O)C(=O)N[C@@H]([C@@H](C)O)C(=O)N[C@@H](CO)C(=O)N[C@@H]([C@@H](C)O)C(=O)N1)[C@@H](C)O)C(=O)N[C@@H](CC(C)C)C(=O)N1CCC[C@H]1C(=O)N1CCC[C@H]1C(=O)N[C@H](C(=O)N[C@@H](CCCCN)C(=O)N[C@H](C(=O)NCC(=O)N[C@@H](CO)C(=O)N[C@@H](CCC(=O)O)C(=O)N[C@H](C(=O)N[C@@H](Cc1ccc(O)cc1)C(N)=O)[C@@H](C)O)C(C)C)[C@@H](C)O [Compound A96] (H-SCNTSTCATQRLAN[dK]([γGlu-γGlu-X1])LHKSSNNFGPILPPTKVGSETY-NH2; disulfide 2-7; N-terminus assumed)
0.149 | 4.05 | 28.4 | CC[C@H](C)[C@H](NC(=O)[C@@H]1CCCN1C(=O)CNC(=O)[C@H](Cc1ccccc1)NC(=O)[C@H](CC(N)=O)NC(=O)[C@H](CC(N)=O)NC(=O)[C@H](CO)NC(=O)[C@H](CO)NC(=O)[C@H](CCCCN)NC(=O)[C@H](Cc1c[nH]cn1)NC(=O)[C@H](CC(C)C)NC(=O)[C@@H](CCCCNC(=O)CC[C@H](NC(=O)CC[C@H](NC(=O)COCCOCCNC(=O)COCCOCCNC(=O)CC[C@H](NC(=O)CCCCCCCCCCCCCCCCCCC(=O)O)C(=O)O)C(=O)O)C(=O)O)NC(=O)[C@H](CC(N)=O)NC(=O)[C@H](C)NC(=O)[C@H](CC(C)C)NC(=O)[C@H](CCCNC(=N)N)NC(=O)[C@H](CCC(N)=O)NC(=O)[C@@H](NC(=O)[C@H](C)NC(=O)[C@@H]1CSSC[C@H](NC(=O)[C@@H](N)CO)C(=O)N[C@@H](CC(N)=O)C(=O)N[C@@H]([C@@H](C)O)C(=O)N[C@@H](CO)C(=O)N[C@@H]([C@@H](C)O)C(=O)N1)[C@@H](C)O)C(=O)N[C@@H](CC(C)C)C(=O)N1CCC[C@H]1C(=O)N1CCC[C@H]1C(=O)N[C@H](C(=O)N[C@@H](CCCCN)C(=O)N[C@H](C(=O)NCC(=O)N[C@@H](CO)C(=O)N[C@@H](CCC(=O)O)C(=O)N[C@H](C(=O)N[C@@H](Cc1ccc(O)cc1)C(N)=O)[C@@H](C)O)C(C)C)[C@@H](C)O [Compound A101] (H-SCNTSTCATQRLAN[dK]([γGlu-γGlu-AEEA-AEEA-γGlu-C20 diacid])LHKSSNNFGPILPPTKVGSETY-NH2; disulfide 2-7; N-terminus assumed)
